Test results reported in ChEMBL document CHEMBL5150029, “Conformationally Defined Rexinoids for the Prevention of Inflammation and Nonmelanoma Skin Cancers” (J Med Chem, 2022).
Calls of active or inactive are those of the source. The calls are words filed in the database; no cut-off is given here.

Key:
[1] = target: T1, Retinoic acid receptor RXR-alpha (Homo sapiens, UniProt P19793); experiment: Binding affinity to human RXRalpha LBD (T225 to T462 residues) by fluorescence quenching assay
T1 sequence (P19793 whole entry): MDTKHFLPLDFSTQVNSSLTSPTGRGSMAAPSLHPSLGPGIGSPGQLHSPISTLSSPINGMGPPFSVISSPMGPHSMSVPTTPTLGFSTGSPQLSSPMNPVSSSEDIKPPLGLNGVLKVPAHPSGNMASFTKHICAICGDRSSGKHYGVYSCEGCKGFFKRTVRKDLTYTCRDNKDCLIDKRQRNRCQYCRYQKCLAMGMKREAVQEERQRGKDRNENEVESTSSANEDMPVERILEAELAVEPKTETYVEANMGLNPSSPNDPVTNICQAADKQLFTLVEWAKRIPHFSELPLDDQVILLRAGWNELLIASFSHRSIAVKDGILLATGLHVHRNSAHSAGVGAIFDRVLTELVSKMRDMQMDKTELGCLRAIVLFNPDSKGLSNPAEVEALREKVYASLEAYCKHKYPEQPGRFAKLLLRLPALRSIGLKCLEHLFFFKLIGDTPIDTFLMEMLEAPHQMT

[2] = target: T1, Retinoic acid receptor RXR-alpha; experiment: Agonist activity at human GAL4-fused RXRalpha LBD (T225 to T462 residues) expressed in HEK293 cells incubated for 24 hrs by Dual-Glo luciferase assay; type: cell-based
[3] = target: T1, Retinoic acid receptor RXR-alpha; experiment: Binding affinity to human RXRalpha LBD (T225 to T462 residues) assessed as binding constant by isothermal titration calorimetry
[4] = Induction of triglyceride level in Sprague-Dawley rat at 200 mg/kg in diet for 7 days (reference value: 89 +/- 10 mg/dl); type: functional; conditions: time 7 day
[5] = Induction of triglyceride level in Sprague-Dawley rat at 200 mg/kg in diet for 7 days relative to control (reference value: 0 %); type: functional; conditions: time 7 day
[6] = target: T2, Retinoic acid receptor RXR-alpha (Homo sapiens) (UniProt P19793); conditions: filed as agonist
T2 sequence (whole entry): T1 sequence (P19793 whole entry)
Description: Binding affinity to human RXRalpha LBD (T225 to T462 residues) assessed as change in enthalpy by isothermal titration calorimetry

[7] = target: T2, Retinoic acid receptor RXR-alpha (Homo sapiens); conditions: filed as agonist; remark: listed apart in the source
Description: Binding affinity to human RXRalpha LBD (T225 to T462 residues) assessed as change in entropy by isothermal titration calorimetry

[8] = target: T2, Retinoic acid receptor RXR-alpha (Homo sapiens); conditions: filed as agonist; remark: listed apart in the source
Description: Binding affinity to human RXRalpha LBD (T225 to T462 residues) assessed as gibbs free energy change by isothermal titration calorimetry

[9] = Induction of triglyceride level in Sprague-Dawley rat at 60 mg/kg in diet for 7 days relative to control; type: functional; conditions: time 7 day
Epithelial cell [10] = experiment: Upregulation of RBP1 gene expression in human organotypic epithelial cells at 0.2 uM incubated for 9 days with replacement of fresh compounds every other day by qPCR analysis; type: functional, cell-based; conditions: time 9.0 day
Epithelial cell [11] = experiment: Upregulation of STRA6 gene expression in human organotypic epithelial cells at 0.2 uM incubated for 9 days with replacement of fresh compounds every other day by qPCR analysis; type: functional, cell-based; conditions: time 9.0 day
Epithelial cell [12] = experiment: Upregulation of LRAT gene expression in human organotypic epithelial cells at 0.2 uM incubated for 9 days with replacement of fresh compounds every other day by qPCR analysis; type: functional, cell-based; conditions: time 9.0 day
Epithelial cell [13] = experiment: Upregulation of RDH10 gene expression in human organotypic epithelial cells at 0.2 uM incubated for 9 days with replacement of fresh compounds every other day by qPCR analysis; type: functional, cell-based; conditions: time 9.0 day
Epithelial cell [14] = experiment: Upregulation of RARB gene expression in human organotypic epithelial cells at 0.2 uM incubated for 9 days with replacement of fresh compounds every other day by qPCR analysis; type: functional, cell-based; conditions: time 9.0 day
Epithelial cell [15] = experiment: Upregulation of RARG gene expression in human organotypic epithelial cells at 0.2 uM incubated for 9 days with replacement of fresh compounds every other day by qPCR analysis; type: functional, cell-based; conditions: time 9.0 day
Epithelial cell [16] = experiment: Upregulation of CRABP2 gene expression in human organotypic epithelial cells at 0.2 uM incubated for 9 days with replacement of fresh compounds every other day by qPCR analysis; type: functional, cell-based; conditions: time 9.0 day
Epithelial cell [17] = experiment: Downregulation of LOR gene expression in human organotypic epithelial cells at 0.2 uM incubated for 9 days with replacement of fresh compounds every other day by qPCR analysis; type: functional, cell-based; conditions: time 9.0 day
Epithelial cell [18] = experiment: Downregulation of ACER1 gene expression in human organotypic epithelial cells at 0.2 uM incubated for 9 days with replacement of fresh compounds every other day by qPCR analysis; type: functional, cell-based; conditions: time 9.0 day
Epithelial cell [19] = experiment: Downregulation of MCM7 gene expression in human organotypic epithelial cells at 0.2 uM incubated for 9 days with replacement of fresh compounds every other day by qPCR analysis; type: functional, cell-based; conditions: time 9.0 day
RAW264.7 [20] = experiment: Antiinflammatory activity in LPS-induced mouse RAW264.7 cells assessed as reduction in IL-6 level at 10 uM after 6 hrs by RT-PCR analysis; type: functional, cell-based
RAW264.7 [21] = experiment: Antiinflammatory activity in LPS-induced mouse RAW264.7 cells assessed as reduction in IL-1beta level at 10 uM after 6 hrs by RT-PCR analysis; type: functional, cell-based
RAW264.7 [22] = experiment: Antiinflammatory activity in LPS-induced mouse RAW264.7 cells assessed as reduction in IL27 level at 10 uM after 6 hrs by RT-PCR analysis; type: functional, cell-based
RAW264.7 [23] = experiment: Antiinflammatory activity in LPS-induced mouse RAW264.7 cells assessed as reduction in CCL5 level at 10 uM after 6 hrs by RT-PCR analysis; type: functional, cell-based
RAW264.7 [24] = experiment: Antiinflammatory activity in LPS-induced mouse RAW264.7 cells assessed as reduction in Saa3 level at 10 uM after 6 hrs by RT-PCR analysis; type: functional, cell-based
RAW264.7 [25] = experiment: Antiinflammatory activity in LPS-induced mouse RAW264.7 cells assessed as reduction in CCL22 level at 10 uM after 6 hrs by RT-PCR analysis; type: functional, cell-based
RAW264.7 [26] = experiment: Antiinflammatory activity in LPS-induced mouse RAW264.7 cells assessed as reduction in Csf3 level at 10 uM after 6 hrs by RT-PCR analysis; type: functional, cell-based
[27] = Induction of triglyceride level in Sprague-Dawley rat at 150 mg/kg in diet for 7 days relative to control; type: functional; conditions: time 7 day
Mus musculus [28] = experiment: Prevention of UVB-induced carcinogenesis in Ptch+/- / SHK-1 mouse assessed as reduction in tumor number at 24 mg/kg measured after twice a week of UVB irradiation for 34 weeks (reference value: 8.16 +/- 1.87); type: functional
Mus musculus [29] = experiment: Prevention of UVB-induced carcinogenesis in Ptch+/- / SHK-1 mouse assessed as reduction in tumor number at 24 mg/kg measured after twice a week of UVB irradiation for 34 weeks (reference value: 100 %); type: functional; parameters: scale not given: the % may be the effect or the level left
Mus musculus [30] = experiment: Prevention of UVB-induced carcinogenesis in Ptch+/- / SHK-1 mouse assessed as reduction in tumor number at 25 mg/kg measured after twice a week of UVB irradiation for 34 weeks (reference value: 8.16 +/- 1.87); type: functional
Mus musculus [31] = experiment: Prevention of UVB-induced carcinogenesis in Ptch+/- / SHK-1 mouse assessed as reduction in tumor number at 25 mg/kg measured after twice a week of UVB irradiation for 34 weeks (reference value: 100 %); type: functional; parameters: scale not given: the % may be the effect or the level left
Mus musculus [32] = experiment: Prevention of UVB-induced carcinogenesis in Ptch+/- / SHK-1 mouse assessed as reduction in tumor number at 20 mg/kg measured after twice a week of UVB irradiation for 34 weeks; type: functional

Kd [1] [µM]	EC50 [2] [µM]	Kd [3] [µM]	deltaH [6] [kcal/mol]	TdeltaS [7] [kcal/mol]	deltaG [8] [kcal/mol]	Structure (SMILES)	Activity [4] [mg/dL]	Activity [5] [%]	Activity (RAW264.7 [20])	Activity (RAW264.7 [21])	Activity (RAW264.7 [22])	Activity (RAW264.7 [23])	Activity (RAW264.7 [24])	Activity (RAW264.7 [25])	Activity (RAW264.7 [26])	further results
0.0041	0.023	3.5	-5.1	2.38	-7.5	CCC(C)C1=C(CCC(C)C)/C(=C/C(C)=C\C=C\C(C)=C\C(=O)O)CCC1 (mixture of isomers)	277	211	–	–	–	–	–	–	–	–
–	–	–	–	–	–	CC1=C(/C=C/C(C)=C\C=C\C(C)=C\C(=O)O)C(C)(C)CCC1 [ALITRETINOIN]	–	–	–	–	–	–	–	–	–	Activity [9]: 400%
–	–	–	–	–	–	CC(=C/C=C/C(C)=C/C(=O)O)/C=C1\CCCC(CCC(C)C)=C1CCC(C)C	107	20	Active	Active	Active	Active	Active	Active	Active	Activity (Epithelial cell [10]): Active; Activity (Epithelial cell [11]): Active; Activity (Epithelial cell [12]): Active; Activity (Epithelial cell [13]): Active; Activity (Epithelial cell [14]): Active; Activity (Epithelial cell [15]): Active; Activity (Epithelial cell [16]): Active; Activity (Epithelial cell [17]): Active; Activity (Epithelial cell [18]): Active; Activity (Epithelial cell [19]): Active
–	–	–	–	–	–	C=C(c1ccc(C(=O)O)cc1)c1cc2c(cc1C)C(C)(C)CCC2(C)C [BEXAROTENE]	–	–	–	–	–	–	–	–	–	Activity [27]: 350%
0.0036	0.061	2	-7.4	0.38	-7.8	CCCC1=C(CCC(C)C)/C(=C/C(C)=C\C=C\C(C)=C\C(=O)O)CCC1	160	80	Active	Active	Active	Active	Active	Active	Active	Activity (Epithelial cell [10]): Active; Activity (Epithelial cell [11]): Active; Activity (Epithelial cell [12]): Active; Activity (Epithelial cell [13]): Active; Activity (Epithelial cell [14]): Active; Activity (Epithelial cell [15]): Active; Activity (Epithelial cell [16]): Active; Activity (Epithelial cell [17]): Active; Activity (Epithelial cell [18]): Active; Activity (Epithelial cell [19]): Active; Activity (Mus musculus [28]): 3; Activity (Mus musculus [29]): 63%
0.0047	0.21	3.1	-6.8	0.76	-7.5	CCCCC1=C(CCC(C)C)/C(=C/C(C)=C\C=C\C(C)=C\C(=O)O)CCC1	101	13	Active	Active	Active	Active	Active	Active	Active	Activity (Mus musculus [30]): 1.44; Activity (Mus musculus [31]): 82%
–	–	–	–	–	–	CC(=C/C=C/C(C)=C/C(=O)O)/C=C1\CCCc2ccccc21 [UAB-30]	–	–	–	–	–	–	–	–	–	Activity (Mus musculus [32]): 5.4
